Measurements: patent US10294202B2, “Pyrrolidinones as herbicides” (FMC Corporation, priority 2013, dated 2019)

Key:
foxtail, giant = test: Test C pre-/postemergence herbicide test; format: in vivo, Setaria faberii
In short: (§1)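 Visual rating, 0 (no effect) to 100 (complete control), versus untreated controls after 13 to 15 days in the greenhouse. Pre: seeds in loam/sand, sprayed at planting. Post: 1- to 4-leaf plants (2 to 18 cm) in peat-based mix. Compounds in non-phytotoxic solvent plus surfactant.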

pigweed [1] = test: Test A pre-/postemergence herbicide test; format: in vivo, Amaranthus retroflexus
In short: (§2)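 Seeds sown in loam soil/sand blend received a preemergence directed soil spray of test chemical in non-phytotoxic solvent with surfactant; postemergence plants (2–10 cm, one- to two-leaf stage) were sprayed with the same formulation. After about 10 days in greenhouse, injury was rated visually versus untreated controls, 0 (no effect) to 100 (complete control).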

johnsongrass = test: Test C pre-/postemergence herbicide test; format: in vivo, Sorghum halepense
In short: as §1

corn = test: Test C pre-/postemergence herbicide test; format: in vivo, Zea mays
In short: as §1

lambsquarters = test: Test C pre-/postemergence herbicide test; format: in vivo, Chenopodium album
In short: as §1

velvetleaf = test: Test C pre-/postemergence herbicide test; format: in vivo, Abutilon theophrasti
In short: as §1

waterhemp = test: Test C pre-/postemergence herbicide test; format: in vivo, Amaranthus rudis
In short: as §1

nutsedge, yellow = test: Test C pre-/postemergence herbicide test; format: in vivo, Cyperus esculentus
In short: as §1

oilseed rape = test: Test C pre-/postemergence herbicide test; format: in vivo, Brassica napus
In short: as §1

pigweed [2] = test: Test C pre-/postemergence herbicide test; format: in vivo, Amaranthus retroflexus
In short: as §1

galium = test: Test C pre-/postemergence herbicide test; format: in vivo, Galium aparine; settings: Preemergence; for Plant response rating, Galium: 125 g ai/ha, scale 0 to 100; for Plant response rating (scale of 0 to 100), Galium: 250 g ai/ha
In short: as §1

wheat = test: Test A pre-/postemergence herbicide test; format: in vivo, Triticum aestivum; settings: Postemergence
In short: as §2

[3] = Preemergence, 31 g ai/ha, scale 0 to 100, 0 is no effect and 100 is complete control
[4] = Preemergence, 62 g ai/ha, scale 0 to 100 (0 no effect, 100 complete control)
[5] = Preemergence, 125 g ai/ha, scale 0 to 100
[6] = Postemergence, 125 g ai/ha, visual rating on 0 to 100 scale (0 no effect, 100 complete control), approx. 10 days
[7] = Postemergence, 500 g ai/ha, 0 to 100 scale (0 no effect, 100 complete control)
[8] = Preemergence, 125 g ai/ha, 0 to 100 scale where 0 is no effect and 100 is complete control
[9] = Preemergence, 500 g ai/ha, visual rating on 0 to 100 scale (0 no effect, 100 complete control)
[10] = 31 g ai/ha, scale 0 to 100, 0 is no effect and 100 is complete control
[11] = 62 g ai/ha, scale 0 to 100 (0 no effect, 100 complete control)
[12] = 125 g ai/ha, visual rating on 0 to 100 scale (0 no effect, 100 complete control), approx. 10 days
[13] = 500 g ai/ha, 0 to 100 scale (0 no effect, 100 complete control)
[14] = Postemergence, 31 g ai/ha, scale 0 to 100 (0 no effect, 100 complete control)
[15] = Postemergence, 62 g ai/ha, scale 0 (no effect) to 100 (complete control)
[16] = Postemergence, 125 g ai/ha, scale 0 to 100 (0 no effect, 100 complete control)
[17] = Postemergence, 250 g ai/ha, scale 0 to 100 (0 no effect, 100 complete control)

O=C1NCC(c2cccc(Br)c2)C1C(=O)Nc1ccccc1F (stereo not shown) [Compound 307]
Foxtail, Giant plant response rating (foxtail, giant; [3]): 65
Foxtail, Giant plant response rating (foxtail, giant; [4]): 85
Plant response rating, Foxtail, Giant (foxtail, giant; [5]): 85
Plant response rating (scale of 0 to 100), Foxtail, Giant (foxtail, giant; Preemergence, 250 g ai/ha): 95
Plant response rating, Pigweed (pigweed [1]; [6]): 0
Plant response rating, Pigweed (pigweed [1]; [7]): 0
Plant response rating, Pigweed (pigweed [1]; [8]): 0
Pigweed plant response rating (pigweed [1]; [9]): 0
Johnsongrass plant response rating (johnsongrass; [3]): 0
Johnsongrass plant response rating (johnsongrass; [4]): 0
Plant response rating, Johnsongrass (johnsongrass; [5]): 0
Plant response rating (scale of 0 to 100), Johnsongrass (johnsongrass; Preemergence, 250 g ai/ha): 45
Corn plant response rating (corn; [3]): 0
Corn plant response rating (corn; [4]): 0
Plant response rating, Corn (corn; [5]): 40
Plant response rating (scale of 0 to 100), Corn (corn; Preemergence, 250 g ai/ha): 40
Lambsquarters plant response rating (lambsquarters; [3]): 0
Lambsquarters plant response rating (lambsquarters; [4]): 0
Plant response rating, Lambsquarters (lambsquarters; [5]): 10
Plant response rating (scale of 0 to 100), Lambsquarters (lambsquarters; Preemergence, 250 g ai/ha): 85
Velvetleaf plant response rating (velvetleaf; [4]): 0
Plant response rating, Velvetleaf (velvetleaf; [5]): 0
Plant response rating (scale of 0 to 100), Velvetleaf (velvetleaf; Preemergence, 250 g ai/ha): 0
Waterhemp plant response rating (waterhemp; [4]): 0
Plant response rating, Waterhemp (waterhemp; [5]): 0
Plant response rating (scale of 0 to 100), Waterhemp (waterhemp; Preemergence, 250 g ai/ha): 0
Nutsedge, Yellow plant response rating (nutsedge, yellow; [3]): 0
Nutsedge, Yellow plant response rating (nutsedge, yellow; [4]): 0
Plant response rating, Nutsedge, Yellow (nutsedge, yellow; [5]): 0
Plant response rating (scale of 0 to 100), Nutsedge, Yellow (nutsedge, yellow; Preemergence, 250 g ai/ha): 0
Oilseed Rape plant response rating (oilseed rape; [3]): 0
Oilseed Rape plant response rating (oilseed rape; [4]): 0
Plant response rating, Oilseed Rape (oilseed rape; [5]): 0
Plant response rating (scale of 0 to 100), Oilseed Rape (oilseed rape; Preemergence, 250 g ai/ha): 5
Pigweed plant response rating (pigweed [2]; [3]): 0
Pigweed plant response rating (pigweed [2]; [4]): 0
Plant response rating, Pigweed (pigweed [2]; [5]): 40
Plant response rating (scale of 0 to 100), Pigweed (pigweed [2]; Preemergence, 250 g ai/ha): 35
Galium plant response rating (galium; [10]): 0
Galium plant response rating (galium; [11]): 0
Plant response rating, Galium (galium): 100
Plant response rating (scale of 0 to 100), Galium (galium): 85
Plant response rating, Wheat (wheat; [12]): 0
Plant response rating, Wheat (wheat; [13]): 30

Cc1cccc(NC(=O)C2C(=O)NCC2c2cccc(C(F)(F)F)c2)c1 (stereo not shown) [Compound 317]
Plant response rating, Foxtail, Giant (foxtail, giant; [14]): 0
Plant response rating, Foxtail, Giant (foxtail, giant; [15]): 0
Plant response rating, Foxtail, Giant (foxtail, giant; [16]): 0
Plant response rating, Foxtail, Giant (foxtail, giant; [17]): 50
Foxtail, Giant plant response rating (foxtail, giant; [3]): 80
Foxtail, Giant plant response rating (foxtail, giant; [4]): 90
Plant response rating, Foxtail, Giant (foxtail, giant; [5]): 90
Plant response rating (scale of 0 to 100), Foxtail, Giant (foxtail, giant; Preemergence, 250 g ai/ha): 95
Plant response rating, Pigweed (pigweed [1]; [6]): 0
Plant response rating, Pigweed (pigweed [1]; [7]): 0
Plant response rating, Pigweed (pigweed [1]; [8]): 0
Pigweed plant response rating (pigweed [1]; [9]): 0
Plant response rating, Johnsongrass (johnsongrass; [14]): 0
Plant response rating, Johnsongrass (johnsongrass; [15]): 0
Plant response rating, Johnsongrass (johnsongrass; [16]): 0
Plant response rating, Johnsongrass (johnsongrass; [17]): 5
Johnsongrass plant response rating (johnsongrass; [3]): 0
Johnsongrass plant response rating (johnsongrass; [4]): 0
Plant response rating, Johnsongrass (johnsongrass; [5]): 0
Plant response rating (scale of 0 to 100), Johnsongrass (johnsongrass; Preemergence, 250 g ai/ha): 30
Plant response rating, Corn (corn; [14]): 0
Plant response rating, Corn (corn; [15]): 0
Plant response rating, Corn (corn; [16]): 0
Plant response rating, Corn (corn; [17]): 0
Corn plant response rating (corn; [3]): 0
Corn plant response rating (corn; [4]): 0
Plant response rating, Corn (corn; [5]): 25
Plant response rating (scale of 0 to 100), Corn (corn; Preemergence, 250 g ai/ha): 30
Plant response rating, Lambsquarters (lambsquarters; [14]): 0
Plant response rating, Lambsquarters (lambsquarters; [15]): 0
Plant response rating, Lambsquarters (lambsquarters; [16]): 25
Plant response rating, Lambsquarters (lambsquarters; [17]): 25
Lambsquarters plant response rating (lambsquarters; [3]): 0
Lambsquarters plant response rating (lambsquarters; [4]): 0
Plant response rating, Lambsquarters (lambsquarters; [5]): 0
Plant response rating (scale of 0 to 100), Lambsquarters (lambsquarters; Preemergence, 250 g ai/ha): 10
Plant response rating, Velvetleaf (velvetleaf; [14]): 0
Plant response rating, Velvetleaf (velvetleaf; [15]): 0
Plant response rating, Velvetleaf (velvetleaf; [16]): 0
Plant response rating, Velvetleaf (velvetleaf; [17]): 0
Velvetleaf plant response rating (velvetleaf; [4]): 0
Plant response rating, Velvetleaf (velvetleaf; [5]): 0
Plant response rating, Waterhemp (waterhemp; [14]): 0
Plant response rating, Waterhemp (waterhemp; [15]): 0
Plant response rating, Waterhemp (waterhemp; [16]): 20
Plant response rating, Waterhemp (waterhemp; [17]): 0
Waterhemp plant response rating (waterhemp; [4]): 0
Plant response rating, Waterhemp (waterhemp; [5]): 10
Plant response rating, Nutsedge, Yellow (nutsedge, yellow; [14]): 0
Plant response rating, Nutsedge, Yellow (nutsedge, yellow; [15]): 0
Plant response rating, Nutsedge, Yellow (nutsedge, yellow; [16]): 0
Plant response rating, Nutsedge, Yellow (nutsedge, yellow; [17]): 0
Nutsedge, Yellow plant response rating (nutsedge, yellow; [3]): 0
Nutsedge, Yellow plant response rating (nutsedge, yellow; [4]): 0
Plant response rating, Nutsedge, Yellow (nutsedge, yellow; [5]): 20
Plant response rating (scale of 0 to 100), Nutsedge, Yellow (nutsedge, yellow; Preemergence, 250 g ai/ha): 70
Plant response rating, Oilseed Rape (oilseed rape; [14]): 0
Plant response rating, Oilseed Rape (oilseed rape; [15]): 0
Plant response rating, Oilseed Rape (oilseed rape; [16]): 0
Plant response rating, Oilseed Rape (oilseed rape; [17]): 0
Oilseed Rape plant response rating (oilseed rape; [3]): 0
Oilseed Rape plant response rating (oilseed rape; [4]): 0
Plant response rating, Oilseed Rape (oilseed rape; [5]): 0
Plant response rating (scale of 0 to 100), Oilseed Rape (oilseed rape; Preemergence, 250 g ai/ha): 0
Plant response rating, Pigweed (pigweed [2]; [14]): 5
Plant response rating, Pigweed (pigweed [2]; [15]): 5
Plant response rating, Pigweed (pigweed [2]; [16]): 5
Plant response rating, Pigweed (pigweed [2]; [17]): 5
Pigweed plant response rating (pigweed [2]; [3]): 0
Pigweed plant response rating (pigweed [2]; [4]): 0
Plant response rating, Pigweed (pigweed [2]; [5]): 0
Galium plant response rating (galium; [10]): 0
Galium plant response rating (galium; [11]): 0
Plant response rating, Galium (galium): 0
Plant response rating (scale of 0 to 100), Galium (galium): 0
Plant response rating, Wheat (wheat; [12]): 0
Plant response rating, Wheat (wheat; [13]): 20
